In patent US4921850A, “3-propenylcephem derivative” (Eisai Co., Ltd., priority 1986, dated 1990):
Values after ≈ are worked out from the molar mass of the structure shown. Where two headings read alike, the source gives them in different places.

Tests used:
Experiment in all cases: Anti-bacterial activity (MIC), agar dilution
Type in all cases: cell-based
[1] = test system: Ser. marcescens ES-75
Method: (§1) MIC (μg/ml) were determined by an agar dilution method [Chemotherapy (Japan), 29, 76-79, 1981]. Overnight cultures of the bacterial strains in Mueller-Hinton broth were diluted to final concentration of about 10^6 CFU/ml, and 5 μl of each bacterial suspension was spotted onto Mueller-Hinton agar plates that contained twofold serial dilutions of antibiotics. MICs were measured after incubation for 18 hours at 37° C.

[2] = test system: Staph. aureus 209-P
Method: as §1

[3] = test system: Morganella morganii EP-14; details: 37° C.
Method: as §1

[4] = test system: Kleb. pneumoniae EK-6; details: Kleb. pneumoniae EK-6, agar dilution, about 10^6 CFU/ml, 18 hours, 37° C.
Method: as §1

[5] = test system: Pseud. aeruginosa EP-01
Method: as §1

[6] = test system: Escher. coli NIHJ
Method: as §1

[7] = Ser. marcescens ES-75, agar dilution, about 10^6 CFU/ml, 18 hours, 37° C.
[8] = Staph. aureus 209-P, agar dilution, about 10^6 CFU/ml, 18 hours, 37° C.
[9] = Pseudomonas aeruginosa, EP01, 18 h, Pseud. aeruginosa EP-01, agar dilution, about 10^6 CFU/ml, 18 hours, 37° C., read-out: MIC
[10] = Escherichia coli, 18 h, Escher. coli NIHJ, agar dilution, about 10^6 CFU/ml, 18 hours, 37° C., read-out: MIC
[11] = Pseud. aeruginosa EP-01, agar dilution, about 10^6 CFU/ml, 18 hours, 37° C.
[12] = Escher. coli NIHJ, agar dilution, about 10^6 CFU/ml, 18 hours, 37° C.
[13] = Serratia marcescens, ES75, 18 h, Ser. marcescens ES-75, agar dilution, about 10^6 CFU/ml, 18 hours, 37° C., read-out: MIC
[14] = Staphylococcus aureus, 209P, 18 h, Staph. aureus 209-P, agar dilution, about 10^6 CFU/ml, 18 hours, 37° C., read-out: MIC
[15] = Morganella morganii, EP14, 18 h, about 10^6 CFU/ml, read-out: MIC
[16] = Klebsiella pneumoniae, EK6, 18 h, read-out: MIC
[17] = Serratia marcescens, ES75, 18 h
[18] = Staphylococcus aureus, 209P, 18 h

Compound | MIC [1, 7] | MIC [2, 8] | MIC ([3]; about 10^6 CFU/ml, 18 hours) | MIC [4] | MIC [5, 9] | MIC [6, 10] | MIC [5, 11] | MIC [6, 12] | MIC [1, 13] | MIC [2, 14] | MIC [3, 15] | MIC [4, 16] | other results
NC(=O)C1CC[N+](C/C=C/C2=C(C(=O)[O-])N3C(=O)[C@@H](NC(=O)/C(=N\OCF)c4nsc(N)n4)[C@H]3SC2)(CCO)CC1 (single isomer, unassigned) [Example 2-2, 7β-[2-(5-Amino-1,2,4-thiadiazol-3-yl)-(Z)-2-fluoromethoxyiminoacetamido]-3-[(E)-3-[1-(2-hydroxyethyl)-4-carbamoyl-1-piperidinio]-1-propen-1-yl]-3-cephem-4-carboxylate] | ≤ 0.025 µg/mL | 0.4 µg/mL (≈ 0.653 µM) | ≤ 0.025 µg/mL | ≤ 0.025 µg/mL | 1.56 µg/mL (≈ 2.55 µM) | ≤ 0.025 µg/mL | – | – | – | – | – | – | –
C[N+]1(C/C=C/C2=C(C(=O)[O-])N3C(=O)[C@@H](NC(=O)/C(=N\OCF)c4nsc(N)n4)[C@H]3SC2)C[C@H](O)C[C@@H]1CO (single isomer, unassigned) [Example 6-2, 7β-[2-(5-Amino-1,2,4-thiadiazol-3-yl)-(Z)-2-fluoromethoxyiminoacetamido]-3-[(E)-3-(4R-hydroxy-2R-hydroxymethyl-1-methyl-1-pyrrolidinio)-1-propen-1-yl]-3-cephem-4-carboxylate] | ≤ 0.025 µg/mL | 0.1 µg/mL (≈ 0.175 µM) | ≤ 0.025 µg/mL | ≤ 0.025 µg/mL | – | – | 0.8 µg/mL (≈ 1.4 µM) | ≤ 0.025 µg/mL | – | – | – | – | –
Nc1nc(/C(=N/OCF)C(=O)N[C@@H]2C(=O)N3C(C(=O)[O-])=C(/C=C/C[N+]4(CCO)C[C@H](O)C[C@H]4CO)CS[C@H]23)ns1 (single isomer, unassigned) [Example 7-1, 7β-[2-(5-Amino-1,2,4-thiadiazol-3-yl)-(Z)-2-fluoromethoxyiminoacetamido]-3-[(E)-3-[4R-hydroxy-1-(2-hydroxyethyl)-2S-hydroxymethyl-1-pyrrolidinio]-1-propen-1-yl]-3-cephem-4-carboxylate] | – | – | – | – | 0.8 µg/mL (≈ 1.33 µM) | ≤ 0.025 µg/mL | – | – | ≤ 0.025 µg/mL | 0.2 µg/mL (≈ 0.332 µM) | ≤ 0.025 µg/mL | ≤ 0.025 µg/mL | –
CC(C(N)=O)[N+]1(C/C=C/C2=C(C(=O)[O-])N3C(=O)[C@@H](NC(=O)/C(=N\OCF)c4nsc(N)n4)[C@H]3SC2)CCCC1 (single isomer, unassigned) [Example 13-2] | 0.05 µg/mL (≈ 0.0858 µM) | 0.2 µg/mL (≈ 0.343 µM) | 0.05 µg/mL (≈ 0.0858 µM) | ≤ 0.025 µg/mL | – | – | 1.56 µg/mL (≈ 2.68 µM) | ≤ 0.025 µg/mL | – | – | – | – | –
Nc1nc(/C(=N/OCF)C(=O)N[C@@H]2C(=O)N3C(C(=O)[O-])=C(/C=C/C[N+]4(CC(O)CO)CCCC4)CS[C@H]23)ns1 (single isomer, unassigned) [Example 23-1] | – | – | – | – | 1.56 µg/mL (≈ 2.66 µM) | ≤ 0.025 µg/mL | – | – | ≤ 0.025 µg/mL | 0.2 µg/mL (≈ 0.342 µM) | ≤ 0.025 µg/mL | ≤ 0.025 µg/mL | –
Nc1nc(/C(=N/OCF)C(=O)N[C@@H]2C(=O)N3C(C(=O)[O-])=C(/C=C/C[N+]4(CC(O)CO)CCCC4)CS[C@H]23)ns1 (single isomer, unassigned) [Example 23-2] | ≤ 0.025 µg/mL | 0.2 µg/mL (≈ 0.342 µM) | 0.05 µg/mL (≈ 0.0854 µM) | ≤ 0.025 µg/mL | – | – | 1.56 µg/mL (≈ 2.66 µM) | 0.05 µg/mL (≈ 0.0854 µM) | – | – | – | – | –
CN1CCC[N+]1(C)C/C=C/C1=C(C(=O)[O-])N2C(=O)[C@@H](NC(=O)/C(=N\OCF)c3nsc(N)n3)[C@H]2SC1 (single isomer, unassigned) [Example 122-A, 7β-[2-(5-Amino-1,2,4-thiadiazol-3-yl)-(Z)-2-fluoromethoxyiminoacetamido]-3-[(E)-3-(1,2-dimethyl-1-pyrazolidinio)-1-propen-1-yl]-3-cephem-4-carboxylate] | – | – | – | – | 0.8 µg/mL (≈ 1.48 µM) | ≤ 0.025 µg/mL | – | – | ≤ 0.025 µg/mL | 0.2 µg/mL (≈ 0.37 µM) | ≤ 0.025 µg/mL | ≤ 0.025 µg/mL | –
CN1CCC[N+]1(C)C/C=C/C1=C(C(=O)[O-])N2C(=O)[C@@H](NC(=O)/C(=N\OCF)c3nsc(N)n3)[C@H]2SC1 (single isomer, unassigned) [Example 122-B, 7β-[2-(5-Amino-1,2,4-thiadiazol-3-yl)-(Z)-2-fluoromethoxyiminoacetamido]-3-[(E)-3-(1,2-dimethyl-1-pyrazolidinio)-1-propen-1-yl]-3-cephem-4-carboxylate] | 0.05 µg/mL (≈ 0.0925 µM) | 0.1 µg/mL (≈ 0.185 µM) | ≤ 0.025 µg/mL | ≤ 0.025 µg/mL | – | – | 0.8 µg/mL (≈ 1.48 µM) | ≤ 0.025 µg/mL | – | – | – | – | –
CN1CCC[N+]1(C)C/C=C/C1=C(C(=O)[O-])N2C(=O)[C@@H](NC(=O)/C(=N\OCC#N)c3nsc(N)n3)[C@H]2SC1 (single isomer, unassigned) [Example 160-A] | – | – | – | – | 0.8 µg/mL (≈ 1.46 µM) | ≤ 0.025 µg/mL | – | – | 0.1 µg/mL (≈ 0.183 µM) | 0.1 µg/mL (≈ 0.183 µM) | 0.05 µg/mL (≈ 0.0913 µM) | ≤ 0.025 µg/mL | –
CN1CCC[N+]1(C)C/C=C/C1=C(C(=O)[O-])N2C(=O)[C@@H](NC(=O)/C(=N\OCC#N)c3nsc(N)n3)[C@H]2SC1 (single isomer, unassigned) [Example 160-B] | 0.2 µg/mL (≈ 0.365 µM) | 0.1 µg/mL (≈ 0.183 µM) | 0.05 µg/mL (≈ 0.0913 µM) | 0.05 µg/mL (≈ 0.0913 µM) | – | – | 0.8 µg/mL (≈ 1.46 µM) | 0.05 µg/mL (≈ 0.0913 µM) | – | – | – | – | –
CC(C)(O/N=C(\C(=O)N[C@@H]1C(=O)N2C(C(=O)[O-])=C(C[n+]3ccccc3)CS[C@H]12)c1csc(N)n1)C(=O)O [CAZ, Cefatazidime, reference compound] | – | – | – | – | – | 0.2 µg/mL (≈ 0.366 µM) | – | – | – | – | 0.1 µg/mL (≈ 0.183 µM) | 0.1 µg/mL (≈ 0.183 µM) | MIC [1, 17]: 0.2 µg/mL (≈ 0.366 µM); MIC [2, 18]: 6.25 µg/mL (≈ 11.4 µM); MIC ([5]; Pseudomonas aeruginosa, EP01, 18 h): 1.56 µg/mL (≈ 2.85 µM)
CN(C)CCn1nnnc1SCC1=C(C(=O)O)N2C(=O)[C@@H](NC(=O)Cc3csc(N)n3)[C@H]2SC1 [CTM, Cefotiam, reference compound] | – | – | – | – | > 100 µg/mL | 0.1 µg/mL (≈ 0.19 µM) | – | – | 6.25 µg/mL (≈ 11.9 µM) | 0.2 µg/mL (≈ 0.38 µM) | 0.2 µg/mL (≈ 0.38 µM) | 0.1 µg/mL (≈ 0.19 µM) | –
CC[N+](C)(C/C=C/C1=C(C(=O)[O-])N2C(=O)[C@@H](NC(=O)/C(=N\OCF)c3nsc(N)n3)[C@H]2SC1)CC(N)=O (stereo partly drawn) [Example 1, 7β-[2-(5-Amino-1,2,4-thiadiazol-3-yl)-(Z)-2-fluoromethoxyiminoacetamido]-3-[(E)-3-(carbamoylmethylethylmethylammonio)-1-propen-1-yl]-3-cephem-4-carboxylate] | – | – | – | – | – | – | – | – | – | – | – | – | MIC [1, 17]: 0.1 µg/mL (≈ 0.18 µM); MIC [2, 18]: 0.2 µg/mL (≈ 0.359 µM); MIC ([3]; EP14, about 10^6 CFU/ml, 18 hours, read-out: MIC): ≤ 0.025 µg/mL; MIC ([4]; Klebsiella pneumoniae, EK6, read-out: MIC): ≤ 0.025 µg/mL; MIC ([5]; Pseudomonas aeruginosa, EP01, Pseud. aeruginosa EP-01, agar dilution, about 10^6 CFU/ml, 18 hours, 37° C., read-out: MIC): 0.8 µg/mL (≈ 1.44 µM); MIC ([6]; Escherichia coli, 18 h): ≤ 0.025 µg/mL
CC(O)C[N+](C)(C)C/C=C/C1=C(C(=O)[O-])N2C(=O)[C@@H](NC(=O)/C(=N\OCF)c3nsc(N)n3)[C@H]2SC1 (stereo partly drawn) [Example 4, 7β-[2-(5-Amino-1,2,4-thiadiazol-3-yl)-(Z)-2-fluoromethoxyiminoacetamido]-3-[(E)-3-[(2-hydroxypropyl)dimethylammonio]-1-propen-1-yl]-3-cephem-4-carboxylate] | – | – | – | – | 0.8 µg/mL (≈ 1.47 µM) | 0.05 µg/mL (≈ 0.092 µM) | – | – | 0.1 µg/mL (≈ 0.184 µM) | 0.4 µg/mL (≈ 0.736 µM) | 0.05 µg/mL (≈ 0.092 µM) | ≤ 0.025 µg/mL | –
C[C@@H](CO)[N+](C)(C)C/C=C/C1=C(C(=O)[O-])N2C(=O)[C@@H](NC(=O)/C(=N\OCC#N)c3nsc(N)n3)[C@H]2SC1 [Example 148] | – | – | – | – | 1.56 µg/mL (≈ 2.83 µM) | – | – | – | 0.05 µg/mL (≈ 0.0908 µM) | 0.4 µg/mL (≈ 0.726 µM) | 0.1 µg/mL (≈ 0.182 µM) | 0.05 µg/mL (≈ 0.0908 µM) | –
